Assay results as given in PubChem BioAssay (NCI).
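Where inhibition never reached the appropriate level, the endpoint shown equals the highest concentration tested. Otherwise, values were interpolated linearly from a five-concentration, 48-hour dose response in 96-well plates. Here, GI50 denotes the concentration required for 50% inhibition of growth. TGI: concentration producing complete growth inhibition.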

Tests used:
Experiment in all cases: NCI-60 cell line screen, 48 h
KM12 colon = tested on: KM12 colon
SW-620 colon = tested on: SW-620 colon
SNB-75 CNS = tested on: SNB-75 CNS
SNB-19 CNS = tested on: SNB-19 CNS
786-0 renal = tested on: 786-0 renal
MOLT-4 leukemia = tested on: MOLT-4 leukemia
SF-539 CNS = tested on: SF-539 CNS
IGROV1 ovarian = tested on: IGROV1 ovarian
COLO 205 colon = tested on: COLO 205 colon
HCC-2998 colon = tested on: HCC-2998 colon

SMILES | TGI (KM12 colon) [µM] | TGI (SW-620 colon) [µM] | TGI (SNB-75 CNS) [µM] | TGI (SNB-19 CNS) [µM] | TGI (786-0 renal) [µM] | TGI (MOLT-4 leukemia) [µM] | TGI (SF-539 CNS) [µM] | TGI (IGROV1 ovarian) [µM] | TGI (COLO 205 colon) [µM] | TGI (HCC-2998 colon) [µM] | GI50 (KM12 colon) [µM] | GI50 (SW-620 colon) [µM] | GI50 (HCC-2998 colon) [µM] | GI50 (SNB-75 CNS) [µM] | GI50 (SNB-19 CNS) [µM] | GI50 (MOLT-4 leukemia) [µM] | GI50 (SF-539 CNS) [µM] | GI50 (IGROV1 ovarian) [µM] | GI50 (COLO 205 colon) [µM]
NC(=O)c1c(NC=O)ncn1C1OCC(O)C(O)C1O (centres undefined) | > 100 | > 100 | > 100 | > 100 | > 100 | > 100 | > 100 | > 100 | > 100 |  |  |  |  |  |  |  |  |  | 
CC[C@H](C)C1=C(O)[N@+]2([O-])Oc3ccc(-c4c(O)c(O)c(-c5ccc(O)cc5)c(OC(C)=O)c4OC(C)=O)cc3O[C@]2([C@@H](C)CC)C(=O)N1O | > 50 | > 50 |  | > 50 | > 50 | > 50 | > 50 | 28.2 | > 50 |  |  |  |  |  |  |  |  |  | 
CN(C)c1cccc2c1C(=O)C=CC21CCc2ccc(N(C)C)c3c(N(C)C)ccc1c23 (centres undefined) | 30.2 | 35.6 | 19.2 | 33.4 | 26.1 | 47 | 35.4 | 31.2 | 29 |  |  |  |  |  |  |  |  |  | 
O=C(Nc1nnc(-c2c(Cl)c(Cl)c(Cl)c(Cl)c2-c2nc3cc(C(=O)c4ccccc4)ccc3[nH]2)o1)c1ccc(Cl)cc1 | > 100 | > 100 | > 100 | > 100 | > 100 | > 100 | > 100 | > 100 | 35.1 |  |  |  |  |  |  |  |  |  | 
COc1nc2c(c(=O)n1C)N=C(c1ccc(Cl)cc1)CC(c1ccccc1)N2 (centres undefined) | 33.8 | > 100 | 46.7 | > 100 | > 100 | 49.6 | 31.5 | 51.5 | > 100 | 35.8 |  |  |  |  |  |  |  |  | 
Nc1c2c(nc3ccccc13)-c1ccccc1NCCC2 | > 100 | > 100 | > 100 | > 100 | 32.4 | > 100 | 43.9 | > 100 | 35.2 | 27 |  |  |  |  |  |  |  |  | 
C=CCc1cc(C(Cc2ccccc2)NC(C)C)cc(OCc2ccccc2)c1OCc1ccccc1 (centres undefined) | 40.2 | 32.5 | 26.2 | 28.8 | 30.7 | 26.7 | 29 | 29.9 | 31.3 | 26.7 |  |  |  |  |  |  |  |  | 
COc1cc(C2c3cc4c(cc3[C@@H](Oc3ccc(F)cc3)C3COC(=O)[C@H]23)OCO4)cc(OC)c1O (some centres undefined) | 27.9 | > 100 |  |  |  | 4.66 |  | > 100 | 4.86 | > 100 |  |  |  |  |  |  |  |  | 
NC(Cc1ncccn1)C(=O)O (centres undefined) | > 100 | > 100 | > 100 | > 100 | > 100 | > 100 | > 100 | > 100 | > 100 | > 100 |  |  |  |  |  |  |  |  | 
S=C(N1CCN(c2cccc(Cl)c2)CC1)N1CCN(c2cccc(Cl)c2)CC1 | 61.7 | > 100 |  | > 100 | > 100 | 64.1 |  | > 100 | 68 | 36.1 |  |  |  |  |  |  |  |  | 
O=C(NCCNc1nccc(-c2c(-c3cccc(O)c3)nc3sccn23)n1)c1ccccc1 | 28.5 | 79.5 | 28.1 | > 100 |  | 74.2 | 36.8 | 50.9 | 23.8 | 31.2 | 12.1 | 18 | 13.8 | 3.27 | 29.4 | 13.5 | 11.3 | 3.61 | 3.99
COc1ccc2c3c([nH]c2c1)CCN(Cc1ccccc1)C3 | 70.5 | 51.7 | > 100 | 44.3 |  | 73.7 | 32.7 | > 100 | 38.5 | 34.1 |  |  |  |  |  |  |  |  | 
CC(C)(C)OC(=O)CN1CCN(CC(=O)N2CCN(C(=O)OCc3ccccc3)CC2)CCN(CC(=O)OC(C)(C)C)CCN(CC(=O)N2CCN(C(=O)OCc3ccccc3)CC2)CC1 | 3.06 | 8.5 | 4.75 | 14.6 | 7.42 | 5.05 | 6.85 | 2.65 | 2.64 | 6.55 |  |  |  |  |  |  |  |  | 
O=S(=O)(/N=C(\NO)Nc1ccc(Cl)cc1)c1ccccc1 | > 100 | > 100 | 19.4 | > 89.3 | 16.9 | > 56.6 | > 30.6 | 62.4 | 51.5 | 22 |  |  |  |  |  |  |  |  | 
N#Cc1c(-c2ccc(Cl)cc2)c2c(N=Nc3c(O)ccc4ccccc34)[nH]nc2[nH]c1=O |  | 2.31 |  | 1.91 | 2.04 | 1.34 | 1.37 | 1.14 | 2.66 | 0.89 |  |  |  |  |  |  |  |  | 
CCn1c2ccccc2c2ccc(C3C(C(=O)OC)=C(C)NC(C)=C3C(=O)OC)cc21 | > 100 | > 100 | > 100 | > 100 | > 100 | > 100 | > 100 | > 100 | > 100 | > 100 |  |  |  |  |  |  |  |  | 
CCOC(=O)Cc1cnc(NC(NC(=O)CC)(C(F)(F)F)C(F)(F)F)s1 | > 100 |  | > 100 | > 100 |  | > 100 | > 100 |  |  | > 100 |  |  |  |  |  |  |  |  | 
O=C1CSC2=NC3=C(CSC/C3=C\c3ccccc3)C(c3ccccc3)N12 (centres undefined) | > 100 | > 100 | > 100 |  | > 100 | > 100 | > 100 | > 100 | > 100 | > 100 |  |  |  |  |  |  |  |  | 
ClCc1cccc(CSc2ncnc3c2ncn3Cc2cccc(CCl)c2)c1 | 3.46 | 3.47 | 2.93 | 3.46 |  | 17.2 | 4.31 | 4.51 | 3.43 | 3.13 | 1.88 | 1.69 | 1.71 | 1.51 | 1.85 | 3.65 | 1.58 | 1.95 | 1.88
CC(=O)C(=[N+]=[N-])C(=O)N(C)CCC#N | > 10 | > 10 | 3.39 | > 10 | > 10 | > 10 | > 10 | > 10 |  |  |  |  |  |  |  |  |  |  | 
O=C1CCCCC/C1=C\c1ccccc1 | > 100 | > 100 | > 100 | > 100 | > 100 | > 100 |  | > 100 | > 100 | > 100 |  |  |  |  |  |  |  |  | 
